In ChEMBL document CHEMBL1201862, “PubChem BioAssay data set” (2004):
Each block holds one compound with its values, some of them ahead of it. Calls of active or inactive are those of the source.

Columns and labels:
[1] = biological target: T1, Oxysterols receptor LXR-beta (Homo sapiens, UniProt P55055); format: functional, cell-based;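 further: agonist activity at LXR measured by a cell-based luminescence readout across a dose range, run as a counterscreen for daf-12 agonists; HEK293 cells with Gal4-LXR fusion and GAL4-driven luciferase reporter; potency for activation of Gal4-LXR reporter so compounds are agonists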
T1 sequence (P55055 whole entry): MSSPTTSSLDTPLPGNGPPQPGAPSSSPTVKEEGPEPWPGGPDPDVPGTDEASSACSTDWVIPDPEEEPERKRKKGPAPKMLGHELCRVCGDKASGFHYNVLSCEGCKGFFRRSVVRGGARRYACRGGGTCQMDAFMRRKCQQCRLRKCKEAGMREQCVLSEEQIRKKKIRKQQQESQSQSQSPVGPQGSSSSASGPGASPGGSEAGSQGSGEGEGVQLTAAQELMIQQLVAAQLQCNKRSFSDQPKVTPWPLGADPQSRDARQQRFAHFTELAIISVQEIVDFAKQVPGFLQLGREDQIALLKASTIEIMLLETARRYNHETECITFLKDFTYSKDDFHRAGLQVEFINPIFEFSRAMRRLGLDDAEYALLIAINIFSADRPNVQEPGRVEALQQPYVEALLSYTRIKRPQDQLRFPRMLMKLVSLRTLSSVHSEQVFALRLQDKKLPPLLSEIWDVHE

[2] = A2780 cell killing – plate reader, dry powder samples, cytotoxicity control, dose response (AID 743046); format: functional, cell-based
[3] = OVCAR8 cell viability loss – plate reader, dry powder samples, PAX8 project, dose response (AID 743197); format: functional, cell-based; details: OVCAR-8
[4] = OVCAR-3 cell viability loss – plate reader, dry powder samples, PAX8 inhibitor project, dose response (AID 743044); format: functional, cell-based
[5] = potency of ADAM10 substrate cleavage blockers – biochemical, QFRET, dose response (AID 743254);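 further: ADAM10 enzyme with the DM2 quenched FRET peptide as substrate; EDANS fluorescence gain as the protease cuts the substrate; inhibitor potency against ADAM10 proteolytic activity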
Albumin = Albumin (Bos taurus, UniProt P02769); assay: Counterscreen for inhibitors of T-cell receptor (TCR)-CD3 interaction: Fluorescence-based biochemical high throughput dose response assay to identify inhibitors of T-cell receptor (TCR)-CD3 interaction using a TAMRA-labeled BSA probe.; format: functional
Albumin, sequence (P02769 whole entry, the tested form may be a part): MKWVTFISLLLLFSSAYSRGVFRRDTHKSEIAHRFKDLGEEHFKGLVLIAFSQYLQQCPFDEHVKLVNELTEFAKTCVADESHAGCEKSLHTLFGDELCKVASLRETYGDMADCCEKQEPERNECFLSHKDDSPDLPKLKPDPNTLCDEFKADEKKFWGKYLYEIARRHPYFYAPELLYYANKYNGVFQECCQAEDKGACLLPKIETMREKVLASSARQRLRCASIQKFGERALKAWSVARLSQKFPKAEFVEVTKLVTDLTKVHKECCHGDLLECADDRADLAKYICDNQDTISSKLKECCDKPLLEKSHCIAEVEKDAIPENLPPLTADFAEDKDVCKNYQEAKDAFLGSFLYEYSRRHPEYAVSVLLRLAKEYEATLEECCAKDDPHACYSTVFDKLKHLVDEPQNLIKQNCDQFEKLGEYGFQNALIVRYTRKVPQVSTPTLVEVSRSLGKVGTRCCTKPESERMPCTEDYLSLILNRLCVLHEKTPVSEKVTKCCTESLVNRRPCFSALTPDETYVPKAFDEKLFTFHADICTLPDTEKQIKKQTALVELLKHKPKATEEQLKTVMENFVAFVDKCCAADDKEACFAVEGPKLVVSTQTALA

[6] = biological target: Disintegrin and metalloproteinase domain-containing protein 17 (Homo sapiens, UniProt P78536); assay: inhibition of ADAM17 substrate cleavage – biochemical, quenched FRET substrate, counter-screen for ADAM10 exosite inhibitor project, dose response (AID 743253)
Disintegrin and metalloproteinase domain-containing protein 17, sequence (P78536 whole entry, the tested form may be a part): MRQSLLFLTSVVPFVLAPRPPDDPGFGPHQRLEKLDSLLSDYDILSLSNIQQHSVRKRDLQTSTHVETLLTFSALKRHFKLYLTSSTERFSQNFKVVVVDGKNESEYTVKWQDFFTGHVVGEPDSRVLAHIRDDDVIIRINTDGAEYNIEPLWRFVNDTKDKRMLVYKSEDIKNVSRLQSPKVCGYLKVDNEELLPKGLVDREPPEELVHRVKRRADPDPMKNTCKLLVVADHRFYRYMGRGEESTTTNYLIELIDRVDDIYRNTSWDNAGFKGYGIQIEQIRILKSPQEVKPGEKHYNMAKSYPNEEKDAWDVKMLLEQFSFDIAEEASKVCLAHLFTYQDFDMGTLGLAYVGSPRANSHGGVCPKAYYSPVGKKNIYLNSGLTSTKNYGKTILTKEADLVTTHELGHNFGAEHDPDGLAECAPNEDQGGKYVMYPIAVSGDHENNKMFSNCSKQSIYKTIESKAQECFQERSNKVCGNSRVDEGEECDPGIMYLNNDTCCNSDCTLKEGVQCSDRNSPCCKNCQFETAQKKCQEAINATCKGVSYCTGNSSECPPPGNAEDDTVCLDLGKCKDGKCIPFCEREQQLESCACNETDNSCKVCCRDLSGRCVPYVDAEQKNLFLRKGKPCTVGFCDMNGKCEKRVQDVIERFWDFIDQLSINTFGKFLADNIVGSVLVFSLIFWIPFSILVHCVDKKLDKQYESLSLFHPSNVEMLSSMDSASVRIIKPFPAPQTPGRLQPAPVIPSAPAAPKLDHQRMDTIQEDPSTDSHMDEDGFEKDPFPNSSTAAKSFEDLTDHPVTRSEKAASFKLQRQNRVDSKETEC

[7] = biological target: Tyrosyl-DNA phosphodiesterase 2 (Homo sapiens, UniProt O95551); assay: potency against TDP2 phosphodiesterase activity – biochemical, epi absorbance, IC50, dose response (AID 743297)
Tyrosyl-DNA phosphodiesterase 2, sequence (O95551 whole entry): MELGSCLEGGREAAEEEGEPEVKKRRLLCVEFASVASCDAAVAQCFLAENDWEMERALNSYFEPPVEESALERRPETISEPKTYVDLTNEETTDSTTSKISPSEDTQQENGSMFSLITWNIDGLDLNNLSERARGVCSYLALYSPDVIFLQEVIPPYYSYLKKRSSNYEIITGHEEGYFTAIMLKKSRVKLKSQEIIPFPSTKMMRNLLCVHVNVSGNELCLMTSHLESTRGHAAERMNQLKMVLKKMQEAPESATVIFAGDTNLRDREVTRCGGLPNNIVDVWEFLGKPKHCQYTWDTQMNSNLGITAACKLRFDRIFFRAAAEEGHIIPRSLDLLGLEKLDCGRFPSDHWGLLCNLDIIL

[8] = general mammalian cell viability loss – inhibitor set, cherry-pick, set 2, cytotoxicity control for miR-122 modulator project, dose response (AID 720697); format: functional, cell-based
[9] = biological target: T2, Corticotropin-releasing factor receptor 2/Corticotropin-releasing factor-binding protein (Homo sapiens, UniProt P24387+Q13324); assay: Dose Response confirmation of uHTS hits for small molecule antagonists of the CRF-binding protein and CRF-R2 receptor complex.; format: functional; details: read-out: IC50_Mean
T2 sequence (Q13324 whole entry): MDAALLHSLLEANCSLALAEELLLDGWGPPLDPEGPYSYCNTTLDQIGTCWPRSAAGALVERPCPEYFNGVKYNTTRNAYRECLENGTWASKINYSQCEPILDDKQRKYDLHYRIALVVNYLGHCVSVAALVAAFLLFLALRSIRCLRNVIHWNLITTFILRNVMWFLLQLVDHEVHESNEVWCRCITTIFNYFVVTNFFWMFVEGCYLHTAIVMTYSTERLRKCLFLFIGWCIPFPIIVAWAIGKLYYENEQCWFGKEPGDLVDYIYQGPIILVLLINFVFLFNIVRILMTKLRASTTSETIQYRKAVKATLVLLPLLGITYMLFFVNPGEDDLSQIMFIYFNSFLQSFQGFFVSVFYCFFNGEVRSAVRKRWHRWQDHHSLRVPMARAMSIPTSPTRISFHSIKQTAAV
T2 sequence (P24387 whole entry): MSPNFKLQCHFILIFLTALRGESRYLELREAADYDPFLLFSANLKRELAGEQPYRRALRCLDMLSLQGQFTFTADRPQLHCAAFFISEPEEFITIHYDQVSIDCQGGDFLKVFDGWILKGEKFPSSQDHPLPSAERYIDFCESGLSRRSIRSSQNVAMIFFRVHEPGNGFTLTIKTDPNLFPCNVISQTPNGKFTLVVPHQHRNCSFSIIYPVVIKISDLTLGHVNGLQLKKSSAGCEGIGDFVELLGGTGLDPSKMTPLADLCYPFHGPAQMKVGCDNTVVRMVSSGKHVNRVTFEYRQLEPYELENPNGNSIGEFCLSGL

fMet-Leu-Phe receptor = fMet-Leu-Phe receptor (Homo sapiens, UniProt P21462); assay: formyl peptide receptor binders – dose response (AID 519); format: functional
fMet-Leu-Phe receptor, sequence (P21462 whole entry): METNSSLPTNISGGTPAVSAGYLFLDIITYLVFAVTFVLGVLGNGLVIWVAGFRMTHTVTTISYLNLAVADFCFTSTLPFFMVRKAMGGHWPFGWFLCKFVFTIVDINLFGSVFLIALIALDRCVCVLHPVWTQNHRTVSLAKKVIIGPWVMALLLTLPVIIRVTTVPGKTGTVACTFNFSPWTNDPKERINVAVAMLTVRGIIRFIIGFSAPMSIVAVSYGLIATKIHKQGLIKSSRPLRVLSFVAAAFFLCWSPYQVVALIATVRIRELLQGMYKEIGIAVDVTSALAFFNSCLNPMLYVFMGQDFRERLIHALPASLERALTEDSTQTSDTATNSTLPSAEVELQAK

[10] = biological target: FAD-linked sulfhydryl oxidase ALR (Homo sapiens, UniProt P55789); assay: ALR-catalysed DTT oxidation blockers – biochemical, H2O2 detection, luminescence, cherry-pick, dose response (AID 493248)
FAD-linked sulfhydryl oxidase ALR, sequence (P55789 whole entry): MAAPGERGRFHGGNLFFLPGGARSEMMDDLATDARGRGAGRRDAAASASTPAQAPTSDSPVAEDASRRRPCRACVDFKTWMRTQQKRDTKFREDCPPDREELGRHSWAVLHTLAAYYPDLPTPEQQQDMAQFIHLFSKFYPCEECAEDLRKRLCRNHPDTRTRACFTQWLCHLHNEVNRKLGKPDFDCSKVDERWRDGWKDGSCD

[11] = biological target: T2, Corticotropin-releasing factor receptor 2/Corticotropin-releasing factor-binding protein; assay: activators of CRF receptor 2 with binding protein – uHTS hits, confirmation (AID 602473); format: functional; details: read-out: EC50_Mean
[12] = blockers of HIV-1 envelope-mediated cell-cell fusion – cherry-pick, dose response (AID 652057); format: functional, cell-based
[13] = viability loss in CEM21 cells – cell-based, CellTiter-Glo luminescence, cherry-picked, cytotoxicity control for viral fusion inhibitor project, dose response (AID 652042); format: functional;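 further: potency for signal decrease meaning cytotoxicity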
[14] = P. falciparum Dd2 growth inhibitors, dose response, SYBR Green, cherry-picked samples (AID 1159567); format: functional, cell-based
[15] = reduced cellular PGC1a acetyl-lysine signal – cell-based, cherry-picked samples, dose response (AID 720514); format: functional;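 further: potency may reflect raised or lowered acetylation signal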
[16] = T. cruzi growth inhibition in host cells, dose response, cell-based, plate reader, dry powder, set 2 (AID 652275); format: functional

EC50 [1]: > 67.5 µM (inactive)
SMILES: CCOc1ccc(-c2c(=O)n(O)c3ccccc3[n+]2[O-])cc1

SMILES: COc1ccc(NC(=O)N2CCCCN3[C@@H](CO)[C@@H](c4ccc(C5=CCCC5)cc4)[C@@H]3C2)cc1
AC50 [2]: 52.9 µM (active)
AC50 [3]: 64.1 µM (active)
AC50 [4]: 41.6 µM (active)

IC50 [5]: > 69.5 µM (inactive)
IC50 (Albumin): > 94.1 µM (inactive)
IC50 [6]: > 69.5 µM (inactive)
SMILES: COc1cc(/C=N/NC(=O)COc2ccc(Cl)cc2)ccc1OS(=O)(=O)c1ccc(C)cc1

IC50 [7]: > 128 µM (inactive)
SMILES: O=C(NC(=S)Nc1ccccc1N1CCCC1)c1ccco1

SMILES: CCNC(=O)C[C@@H]1CC[C@H]2[C@H](COc3ccc(NC(=O)c4cccc(C(F)(F)F)c4)cc3C(=O)N2C)O1
AC50 [8]: 3.05 µM (active)

IC50 [9]: > 47.1 µM (inactive)
Ki (fMet-Leu-Phe receptor): > 66.7 µM (inactive)
AC50 [10]: 0.246 µM (active)
EC50 [11]: > 53 µM (inactive)
SMILES: Cc1ccc(Nc2ccc(C(=O)O)cc2N)cc1

SMILES: Cc1ccc(-c2ccc3c(c2)O[C@@H](CN(C)C(=O)C2CCCCC2)[C@H](C)CN([C@H](C)CO)S3(=O)=O)cc1
AC50 [12]: 20.7 µM (active)
AC50 [13]: 22 µM (active)
AC50 [14]: 3.07 µM (active)
AC50 [15]: 15 µM (active)

SMILES: Cc1ccc(NC(=O)c2ccc(OCC3CCCO3)cc2)cc1Cl (centres undefined)
AC50 [13]: 50 µM (active)

SMILES: OC[C@H]1[C@H](c2ccc(-c3ccccc3)cc2)[C@@H]2CN(Cc3cncnc3)CCCCN12
AC50 [16]: 0.185 µM (active)
